Test results as given in ChEMBL document CHEMBL1150298, “Sulfadiazine/hydroxypropyl-beta-cyclodextrin host-guest system: Characterization, phase-solubility and molecular modeling” (Bioorg Med Chem, 2008).
Converted amounts (≈) assume the structure as drawn.

Assay: Aqueous solubility of compound at pH 7 by spectrophotometry
Conditions: aqueous solution

SMILES: Nc1ccc(S(=O)(=O)Nc2ncccn2)cc1 [SULFADIAZINE]
- solubility: 40 µg/mL (≈ 160 µM)
